Measured values published in patent publication US8501755B2, “Tetrahydropyridothienopyrimidine compounds and methods of use thereof” (Bayer Intellectual Property GmbH, priority 2006, dated 2013).

Columns and labels:
Type in all cases: cell-based
[1] = test system: H1975 cells; assay: In vitro tumor cell proliferation assay (Cell Titer-Glo) in H1975 cells; details: NCI-H1975; H1975 human NSCLC expressing mutant HER1 (L858R,T790M); 72 hours exposure; read-out: IC50, activities in H 1975 cell lines
From the text: The tumor cell proliferation assay used to test the compounds of the present invention involves a readout called Cell Titer-Glow® Luminescent Cell Viability Assay developed by Promega® (Cunningham, BA “A Growing Issue: Cell Proliferation Assays, Modern kits ease quantification of cell growth” The Scientist 2001, 15(13), 26, and Crouch, S P et al., “The use of ATP bioluminescence as a measure of cell proliferation and cytotoxicity” Journal of Immunological Methods 1993, 160, 81-88), that measures inhibition of cell proliferation. Generation of a luminescent signal corresponds to the amount of ATP present, which is directly proportional to the number of metabolically active (proliferating) cells.
H1975 cells [human non small cell lung carcinoma, ATCC # CRL-5908, expressing mutant HER1 [(EGFR, ErbB1)(L858R,T790M] were plated at a density of 3×10^3 cells/well in 96 well black-clear bottom tissue culture plates in RPMI media with 10% Fetal Bovine Serum and incubated at 37° C. Twenty-four hours later, test compounds are added at a final concentration range from as high 10 uM to as low 64 pM depending on the activities of the tested compounds in serial dilutions at a final DMSO concentration of 0.1%. Cells were incubated for 72 hours at 37° C. in complete growth media after addition of the test compound. After 72 hours of drug exposure, the plates were equilibrated to room temperature for approximately 30 min. Then, using a Promega Cell Titer Glo Luminescent® assay kit, lysis buffer containing 100 microliters of the enzyme luciferase and its substrate, luciferin mixture, was added to each well. The plates were mixed for 2 min on orbital shaker to ensure cell lysis and incubated for 10 min at room temperature to stabilize luminescence signal. The samples were read on VICTOR2 using Luminescence protocol, and analyzed with Analyze5 software to generate IC50 values.

[2] = test system: N87; assay: In vitro tumor cell proliferation assay (Cell Titer-Glo) in N87 cells; details: N87 human gastric carcinoma overexpressing HER2 and HER1; 72 hours exposure; read-out: IC50, activities in N87 cell lines
From the text: (§1) The tumor cell proliferation assay used to test the compounds of the present invention involves a readout called Cell Titer-Glow® Luminescent Cell Viability Assay developed by Promega® (Cunningham, BA “A Growing Issue: Cell Proliferation Assays, Modern kits ease quantification of cell growth” The Scientist 2001, 15(13), 26, and Crouch, S P et al., “The use of ATP bioluminescence as a measure of cell proliferation and cytotoxicity” Journal of Immunological Methods 1993, 160, 81-88), that measures inhibition of cell proliferation. Generation of a luminescent signal corresponds to the amount of ATP present, which is directly proportional to the number of metabolically active (proliferating) cells. A431 cells [human epidermoid carcinoma, ATCC # HTB-20, overexpressing HER1 (EGFR, ErbB1)] and N87 [human gastric carcinoma, ATCC # CRL-1555, overexpressing HER2 (ErbB2) and HER1 (EGFR, ErbB1)] were plated at a density of 2.5×10^3 cells/well in 96 well black-clear bottom tissue culture plates in RPMI media with 10% Fetal Bovine Serum and incubated at 37° C. Twenty-four hours later, test compounds are added at a final concentration range from as high 100 μm to as low […] depend on the activities of the tested compounds in serial dilutions at a final DMSO concentration of 0.1%. Cells were incubated for 72 hours at 37° C. in complete growth media after addition of the test compound. After 72 hours of drug exposure, the plates were equilibrated to room temperature for approximately 30 min. Then, using a Promega Cell Titer Glo Luminescent® assay kit, lysis buffer containing 100 microliters of the enzyme luciferase and its substrate, luciferin mixture, was added to each well. The plates were mixed for 2 min on orbital shaker to ensure cell lysis and incubated for 10 min at room temperature to stabilize luminescence signal. The samples were read on VICTOR2 using Luminescence protocol, and analyzed with Analyze5 software to generate IC50 values.

[3] = test system: A431 cells; assay: In vitro tumor cell proliferation assay (Cell Titer-Glo) in A431 cells; details: Homo sapiens, A-431, 72 h, A431 human epidermoid carcinoma overexpressing HER1; 72 hours exposure; read-out: IC50, activities in A431 cell lines
From the text: as §1

Compound | IC50 [1] | IC50 [2] | IC50 [3]
CN(C)C/C=C/C(=O)N1CCc2c(sc3ncnc(Nc4ccc(OCc5cccc(F)c5)c(Cl)c4)c23)C1 [Example 11, N-{3-chloro-4-[(3-fluorobenzyl)oxy]phenyl}-7-[(2E)-4-(dimethylamino)but-2-enoyl]-5,6,7,8-tetrahydropyrido[4′,3′:4,5]thieno[2,3-d]pyrimidin-4-amine] | 1000 to 10000 nM | < 200 nM | < 200 nM
CCN(CC)C/C=C/C(=O)N1CCc2c(sc3ncnc(Nc4ccc(OCc5cccc(F)c5)c(Cl)c4)c23)C1 [Example 13, N-{3-chloro-4-[(3-fluorobenzyl)oxy]phenyl}-7-[(2E)-4-(diethylamino)but-2-enoyl]-5,6,7,8-tetrahydropyrido[4′,3′:4,5]thieno[2,3-d]pyrimidin-4-amine] | 1000 to 10000 nM | < 200 nM | < 200 nM
CN1CCN(C/C=C/C(=O)N2CCc3c(sc4ncnc(Nc5ccc(OCc6cccc(F)c6)c(Cl)c5)c34)C2)CC1 [Example 14, N-{3-chloro-4-[(3-fluorobenzyl)oxy]phenyl}-7-[(2E)-4-(4-methylpiperazin-1-yl)but-2-enoyl]-5,6,7,8-tetrahydropyrido[4′,3′:4,5]thieno[2,3-d]pyrimidin-4-amine] | 1000 to 10000 nM | < 200 nM | < 200 nM
C#Cc1cccc(Nc2ncnc3sc4c(c23)CCN(C(=O)/C=C/CN2CCOCC2)C4)c1 [Example 15, N-(3-ethynylphenyl)-7-[(2E)-4-morpholin-4-ylbut-2-enoyl]-5,6,7,8-tetrahydropyrido[4′,3′:4,5]thieno[2,3-d]pyrimidin-4-amine] | 1000 to 10000 nM | < 200 nM | < 200 nM
O=C(/C=C/CN1CCCCC1)N1CCc2c(sc3ncnc(Nc4ccc(OCc5cccc(F)c5)c(Cl)c4)c23)C1 [Example 19, N-{3-chloro-4-[(3-fluorobenzyl)oxy]phenyl}-7-[(2E)-4-piperidin-1-ylbut-2-enoyl]-5,6,7,8-tetrahydropyrido[4′,3′: 4,5]thieno[2,3-d]pyrimidin-4-amine] | 1000 to 10000 nM | < 200 nM | < 200 nM
C/C=C/C(=O)N1CCc2c(sc3ncnc(Nc4ccc(F)c(Cl)c4)c23)C1 [Example 23, 7-[(2E)-but-2-enoyl]-N-(3-chloro-4-fluorophenyl)-5,6,7,8-tetrahydropyrido [4′,3′:4,5]thieno[2,3-d]pyrimidin-4-amine] | 1000 to 10000 nM | 200 to 5000 nM | 1000 to 10000 nM
C#Cc1cccc(Nc2ncnc3sc4c(c23)CCN(C(=O)C=C)C4)c1 [Example 27, 7-acryloyl-N-(3-ethynylphenyl)-5,6,7,8-tetrahydropyrido [4′,3′:4,5]thieno[2,3-d]pyrimidin-4-amine] | 200 to 1000 nM | < 200 nM | 1000 to 10000 nM
CN1CCC=C(C(=O)N2CCc3c(sc4ncnc(Nc5ccc(F)c(Cl)c5)c34)C2)C1 [Example 29, N-(3-chloro-4-fluorophenyl)-7-[(1-methyl-1,2,5,6-tetrahydropyridin-3-yl)carbonyl]5,6,7,8-tetrahydropyrido [4′,3′:4,5]thieno[2,3-d]pyrimidin-4-amine] | 1000 to 10000 nM | 200 to 5000 nM | 1000 to 10000 nM
CN1CCC=C(C(=O)N2CCc3c(sc4ncnc(Nc5ccc(OCc6ccccn6)c(Cl)c5)c34)C2)C1 [Example 30, N-[3-chloro-4-(pyridin-2-ylmethoxy)phenyl]-7-[(1-methyl-1,2,5,6-tetrahydropyridin-3-yl)carbonyl]-5,6,7,8-tetrahydropyrido [4′,3′:4,5]thieno[2,3-d]pyrimidin-4-amine] | 1000 to 10000 nM | 200 to 5000 nM | 1000 to 10000 nM

Now from value to compound:

IC50 [1] | IC50 [2] | IC50 [3] | Compound
200 to 1000 nM | < 200 nM | < 200 nM | O=C(/C=C/CN1CCCCC1)N1CCc2c(sc3ncnc(Nc4ccc(F)c(Cl)c4)c23)C1 [Example 12, N-(3-chloro-4-fluorophenyl)-7-[(2E)-4-piperidin-1-ylbut-2-enoyl]-5,6,7,8-tetrahydropyrido[4′,3′:4,5]thieno[2,3-d]pyrimidin-4-amine]
200 to 1000 nM | < 200 nM | < 200 nM | C#Cc1cccc(Nc2ncnc3sc4c(c23)CCN(C(=O)/C=C/CN(CC)CC)C4)c1 [Example 16, 7-[(2E)-4-(diethylamino)but-2-enoyl]-N-(3-ethynylphenyl)-5,6,7,8-tetrahydropyrido[4′,3′:4,5]thieno[2,3-d]pyrimidin-4-amine]
200 to 1000 nM | < 200 nM | < 200 nM | C#Cc1cccc(Nc2ncnc3sc4c(c23)CCN(C(=O)/C=C/CN(C)C)C4)c1 [Example 17, 7-[(2E)-4-(dimethylamino)but-2-enoyl]-N-(3-ethynylphenyl)-5,6,7,8-tetrahydropyrido[4′,3′:4,5]thieno[2,3-d]pyrimidin-4-amine]
200 to 1000 nM | < 200 nM | < 200 nM | C#Cc1cccc(Nc2ncnc3sc4c(c23)CCN(C(=O)/C=C/CN2CCCCC2)C4)c1 [Example 20, N-(3-ethynylphenyl)-7-[(2E)-4-piperidin-1-ylbut-2-enoyl]-5,6,7,8-tetrahydropyrido [4′,3′:4,5]thieno[2,3-d]pyrimidin-4-amine]
< 200 nM | < 200 nM | < 200 nM | O=C(/C=C/CN1CCCC1)N1CCc2c(sc3ncnc(Nc4ccc(F)c(Cl)c4)c23)C1 [Example 21, N-(3-chloro-4-fluorophenyl)-7-[(2E)-4-pyrrolidin-1-ylbut-2-enoyl]-5,6,7,8-tetrahydropyrido [4′,3′:4,5]thieno[2,3-d]pyrimidin-4-amine]
200 to 1000 nM | < 200 nM | < 200 nM | C=CC(=O)N1CCc2c(sc3ncnc(Nc4ccc(F)c(Cl)c4)c23)C1 [Example 22, 7-acryloyl-N-(3-chloro-4-fluorophenyl)-5,6,7,8-tetrahydropyrido [4′,3′:4,5]thieno[2,3-d]pyrimidin-4-amine]
< 200 nM | < 200 nM | 200 to 1000 nM | O=C(/C=C/CN1CCCC1)N1CCc2c(sc3ncnc(Nc4ccc(OCc5ccccn5)c(Cl)c4)c23)C1 [Example 24, N-[3-chloro-4-(pyridin-2-ylmelhoxy)phenyl]-7-[(2E)-4-pyrrolidin-1-ylbut-2-enoyl]-5,6,7,8-tetrahydropyrido [4′,3′:4,5]thieno[2,3-d]pyrimidin-4-amine]
200 to 1000 nM | < 200 nM | 200 to 1000 nM | O=C(/C=C/CN1CCCC1)N1CCc2c(sc3ncnc(Nc4ccc(OCc5cccc(F)c5)c(Cl)c4)c23)C1 [Example 25, N-{3-chloro-4-[(3-fluorobenzyl)oxy]phenyl}-7-[(2E)-4-pyrrolidin-1-ylbut-2-enoyl]-5,6,7,8-tetrahydropyrido [4′,3′:4,5]thieno[2,3-d]pyrimidin-4-amine]
< 200 nM | < 200 nM | < 200 nM | C#Cc1cccc(Nc2ncnc3sc4c(c23)CCN(C(=O)/C=C/CN2CCCC2)C4)c1 [Example 26, N-(3-ethynylphenyl)-7-[(2E)-4-pyrrolidin-1-ylbut-2-enoyl]-5,6,7,8-tetrahydropyrido [4′,3′:4,5]thieno[2,3-d]pyrimidin-4-amine]
< 200 nM | < 200 nM | 1000 to 10000 nM | C=CC(=O)N1CCc2c(sc3ncnc(Nc4ccc(OCc5ccccn5)c(Cl)c4)c23)C1 [Example 28]
